Data from patent publication US11919858B2, “Aminonapthoquinone compounds and pharmaceutical composition for blocking ubiquitination-proteasome system in diseases” (Calgent Biotechnology Co., Ltd., priority 2015, dated 2024).
Like-named read-outs stand apart in the source and are kept apart here.

Key:
[1] = tested on: IL-6 production in murine RAW264.7 macrophage cells; test: IL-6 production in LPS-stimulated RAW264.7 macrophage cells (ELISA); type: cell-based; conditions: Mus musculus, RAW 264.7 cells, pretreated 1 h, LPS (25 ng/mL) 24 h
Experimental: Cell culture. The RAW264.7 mouse macrophage cells were purchased from the Bioresource Collection and Research Center (Hsinchu, Taiwan) and the cells cultured at 37° C. in 5% CO2/95% air in, respectively, 90% Ham's F-12 or Dulbecco's modified Eagle medium, both containing 10% heat-inactivated fetal bovine serum (FBS) (Invitrogen Life Technologies, Carlsbad, CA) and 1% penicillin/streptomycin (Biological Industries, Israel).
IL-6 Determination. To determine the effect of MPT0L056 on the production of cytokine IL-6 from LPS-stimulated cells, RAW 264.7 cells (1×10^6) were plated and pretreated in the presence or absence of MPT0L056 for 1 h, and then stimulated with LPS (25 ng/mL) for 24 h at 37° C. Supernatants were collected and the concentration of cytokines IL-6 was measured by ELISA kit.

HCT-116 = test: Growth inhibition assay; type: cell-based; conditions: Homo sapiens; HCT-116 (Colorectal cancer), 48 hours; read-out: GI50
Experimental: (§1) Cells were seeded in 96-well plastic plates and exposed to MPT0L056 for 48 hours. Cell viability was assessed using the 3-(4,5-dimethylthiazol-2-yl)-2,5-diphenyltetrazolium bromide assay. Growth inhibition was expressed as the percentage of surviving cells in drug-treated versus DMSO-treated control cells.
(§2) The compounds of the invention were subjected to growth inhibition assay.

HL-60 = test: Growth inhibition assay; type: cell-based; conditions: Homo sapiens; HL-60 (Leukemia), 48 hours
Experimental: as §1, §2

Hep 3B = test: Growth inhibition assay; type: cell-based; conditions: Homo sapiens, Hep3B; Hep 3B (Liver cancer), 48 hours; read-out: GI50
Experimental: as §1, §2

MDA-MB-231 = test: Growth inhibition assay; type: cell-based; conditions: Homo sapiens; MDA-MB-231 (Breast cancer), 48 hours; read-out: GI50
Experimental: as §1, §2

[2] = tested on: HCT116 human colorectal adenocarcinoma; conditions: for Logrank Significance: compared to Group 1
Experimental: MPT0L056 was used to evaluate for activity against the HCT116 human colorectal adenocarcinoma.
However, MPT0E028 was administered orally (p.o.) in 1.0% CMC and 0.5% Tween 80 and given dose at 25 mg/kg daily to end schedule.
Each animal was euthanized when the tumors reached the predetermined endpoint size of 1,000 mm^3. The time to endpoint (TTE) for each mouse was calculated by the following equation:
[formula] where TTE is expressed in days, endpoint volume is in mm^3, b is the intercept, and m is the slope of the line obtained by linear regression of a log-transformed tumor growth data set. The data set is comprised of the first observation that exceeded the study endpoint volume and the three consecutive observations that immediately preceded the attainment of the endpoint volume. The calculated TTE is usually less than the day on which an animal is euthanized for tumor size. […] An animal classified as having died from treatment-related (TR) causes or non-treatment-related metastasis (NTRm) causes was assigned a TTE value equal to the day of death. An animal classified as having died from non-treatment-related (NTR) causes was excluded from TTE calculations.
Treatment efficacy was determined from tumor growth delay (TGD), which is defined as the increase in the median TTE for a treatment group compared to the control group: TGD=T−C, expressed in days, or as a percentage of the median TTE of the control group:
[formula] where: • T=median TTE for a treatment group, • C=median TTE for control Group 1.
Treatment efficacy was also determined from the tumor volumes of animals remaining in the study on the last day, and from the number of regression responses. The MTV(n) is defined as the median tumor volume on D59 in the number of animals remaining, n, whose tumors have not attained the endpoint volume.
Treatment may cause a partial regression (PR) or a complete regression (CR) of the tumor in an animal. […] An animal with a CR at the termination of a study is additionally classified as a tumor-free survivor (TFS).
Animals were weighed daily for the first five days, then twice weekly until the completion of the study. The mice were examined frequently for overt signs of any adverse, drug-related side effects. Acceptable toxicity for the MTD of cancer drugs is defined as a group mean BW loss of 20% or less during the test, and not more than one TR death among ten animals. A death is classified as TR if there is evidence of treatment side effects from clinical signs and/or necropsy or from unknown causes during dosing period or within 10 days of the last dose. A death is classified as NTR if there is no evidence that the death was related to treatment side effects.
The logrank test was used to determine the statistical significance of the difference between the TTE values of two groups, except any NTR deaths. Statistical and graphical analyses were performed with Prism 3.03 (GraphPad) for Windows. The two-tailed statistical analyses were conducted at P=0.05. Kaplan-Meier plots show the percentage of animals remaining in the study versus time. The Kaplan-Meier plots use the same data set as the log rank test. The tumor growth curves show the group median tumor volume, on a log scale as a function of time.

[3] = Group 1 vs 4: MPT0L056 100 mg/kg
[4] = Group 4: MPT0L056 100 mg/kg po qd to endpoint
[5] = Group 5: MPT0L056 50 mg/kg po qd to endpoint
[6] = Group 7: MPT0L056 100 mg/kg po qd + MPT0E028 25 mg/kg po qd to endpoint
[7] = Group 8: MPT0L056 50 mg/kg po qd + MPT0E028 25 mg/kg po qd to endpoint

With `O=C(Nc1ccncc1)c1ccc(CNC2=C(Cl)C(=O)c3ccccc3C2=O)cc1` [MPT0L056] the IC50 [1] was 1210 nM, the GI50 (HCT-116) was 4300 nM and the GI50 (HL-60) was 1600 nM. The GI50 (Hep 3B) was 1400 nM, the GI50 (MDA-MB-231) was 2900 nM and the “Hazard Ratio” value [2, 3] was 4.135. The “Median survival” value [2, 3] was 48.55, the “Median survival Ratio” value [2, 3] was 0.4876 and the “Hazard Ratio” value ([2]; Group 1 vs 5: 50 mg/kg) was 1.959. The “Median survival” value ([2]; Group 1 vs 5: 50 mg/kg) was 29.95, the “Median survival Ratio” value ([2]; Group 1 vs 5: 50 mg/kg) was 0.7579 and the “Day of Max % BW Loss” value [2, 4] was 6 days. For the same molecule, the “MTV (n) Day 59” value [2, 4] was 160 mm^3, the “Max % BW Loss” value [2, 4] was −2.3% and the “Median TTE” value [2, 4] was 48.5 days. The “No. of NTR” value [2, 4] was 0, the “No. of TR” value [2, 4] was 0 and the T-C [2, 4] was 25.8 days. The “antitumor activity (logrank analysis)” value [2, 4] was “produced significant antitumor activity”, the “% TGD” value ([2]; Group 4: MPT0L056 100 mg/kg po qd to endpoint, 100 mg/kg) was 114% and the “Logrank Significance” value [2, 4] was “** (** = P < 0.01)”. The “Day of Max % BW Loss” value [2, 5] was 5 days, the “MTV (n) Day 59” value [2, 5] was 975 mm^3 and the “Max % BW Loss” value [2, 5] was −3.8%. The “Median TTE” value [2, 5] was 30.0 days, the “No. of LTTFS” value [2, 5] was 0 and the “No. of NTR” value [2, 5] was 2. The “No. of TR” value [2, 5] was 0, the T-C [2, 5] was 7.3 days and the “antitumor activity (logrank analysis)” value [2, 5] was “but not 50 mg/kg (P=0.2087), produced significant antitumor activity”. The “% TGD” value ([2]; Group 5: MPT0L056 50 mg/kg po qd to endpoint, 50 mg/kg) was 32%, the “% TGD” value [2, 6] was 50% and the “Day of Max % BW Loss” value [2, 6] was 5 days. The “Max % BW Loss” value [2, 6] was −8.4%, the “Median TTE” value [2, 6] was 34.0 days and the “No. of CR” value [2, 6] was 0. The “No. of LTTFS” value [2, 6] was 0, the “No. of NTR” value [2, 6] was 0 and the “No. of PR” value [2, 6] was 0. For the same molecule, the “No. of TR” value [2, 6] was 0, the T-C [2, 6] was 11.3 days and the “% TGD” value [2, 7] was 100%. The “Day of Max % BW Loss” value [2, 7] was 3 days, the “Max % BW Loss” value [2, 7] was −9.5% and the “Median TTE” value [2, 7] was 45.3 days. The “No. of LTTFS” value [2, 7] was 0, the T-C [2, 7] was 22.6 days and the “synergistic effect of antitumor activity (logrank analysis)” value [2, 7] was “significant synergistic effect of antitumor activity”. For the same molecule, the “Logrank Significance” value [2, 7] was “** (** = P < 0.01)”.
